{
  "source": "patent US20240216344A1",
  "about": "“THIAZOLIDINEDIONE ANALOGS FOR THE TREATMENT OF NAFLD AND METABOLIC DISEASES” (Cirius Therapeutics, Inc., priority 2019, published 2024)",
  "tested_on": "patients with biopsy-proven NASH with fibrosis and no cirrhosis",
  "test": "EMMINENCE Phase 2b trial, markers of glucose metabolism, liver enzymes, fibrosis and apoptosis biomarkers",
  "format": "in vivo, human",
  "settings": "for Glucose, LS mean change from baseline to 6 months / Glucose, LS mean difference vs placebo at 6 months / HOMA IR, LS mean change from baseline to 6 months / HOMA IR, LS mean difference vs placebo at 6 months / HgBA1C, LS mean change from baseline to 6 months / HgBA1C, LS mean difference vs placebo at 6 months / Insulin, LS mean change from baseline to 6 months / Insulin, LS mean difference vs placebo at 6 months: patients with HbA1C >7%",
  "protocol": "Study Design: EMMINENCE was a randomized, double-blind evaluation of three oral daily doses of MSDC-0602K (62.5 mg, 125 mg and 250 mg) or placebo given for 12 months to adult patients with biopsy-proven NASH with fibrosis and no cirrhosis. The primary efficacy endpoint was assessed at 12 months. Clinic visits were conducted at baseline, 1, 2, 3, 6, 9, and 12 months, followed 2 weeks later by a safety visit. An interim analysis of safety and efficacy not related to the primary and secondary endpoints was conducted when 6 month data were available for 328 patients (see Example 5, above.) Interim results were provided only as summary statistics to avoid any unmasking of the study team or sponsor.\nIf no usable liver biopsy was available within 9 months prior to screening, a percutaneous liver biopsy was performed in patients with AST≥20 U/L and FibroScan CAP score ≥270 db/m and kPa≥8.5. Digitized slides were read by a single expert histopathologist according to NASH Clinical Research Network criteria. Baseline biopsies were read first for study qualification and a second time mixed randomly among 12-month biopsies. Fasting blood samples for routine central laboratory analyses were collected at each visit, and frozen samples collected at selected visits for biomarker assays.\nEfficacy endpoints: The primary efficacy endpoint was hepatic histological improvement in NAS defined as ≥2-point NAS decrease with a ≥1-point reduction in either ballooning or lobular inflammation and no increase in fibrosis stage at 12 months. Secondary efficacy endpoints included (1) NASH resolution defined as hepatocellular ballooning score of 0 and lobular inflammation score of 0-1 with no increase in fibrosis stage at 12 months, (2) fibrosis improvement defined as ≥1-stage decrease in fibrosis with no worsening of lobular inflammation or hepatocellular ballooning, (3) change from baseline in NAFLD activity score (NAS) and each one of its components (steatosis, lobular inflammation and ballooning) at 12 months, and (4) change from baseline in fibrosis score at 12 months. Exploratory efficacy endpoints included shifts in the central histopathologist's NASH diagnosis confirmation, and changes from baseline to 12 months in markers of glycemic control and insulin sensitivity, liver function/injury, and apoptosis and liver fibrosis.\nUsing a modified intent-to-treat approach, treated patients were included for analysis in their randomly-assigned treatment groups. Participation of sites with serious GCP or quality concerns were terminated and their data excluded from the analyses. Post-baseline measures through 14 days after the last study drug dose were included. No errors in treatment assignment occurred. The central histopathologist's re-read of baseline biopsies was used as baseline. Patients who no longer qualified on re-read were included in the analyses. Each active treatment group was compared to placebo with respect to the primary and secondary histopathologic endpoints using logistic regression including adjustment for randomization strata (diabetes mellitus, baseline fibrosis F1 versus F2/F3), and ordinal baseline NAS. Stratification-adjusted risk differences adjusted similarly are provided. The primary analyses included only observed data; sensitivity analyses included multiply-imputing missing follow-up and considering missing follow-up as a non-responder. Each active dose was compared to placebo regarding changes in NASH CRN scores using analysis of covariance with adjustment for age, sex, diabetes mellitus, Vitamin E≥400 IU, baseline fibrosis F1 versus F2/F3, and the baseline value. Changes in laboratory markers from baseline to 6 months and to 12 months were analyzed similarly.\nPost-hoc analyses: Each active dose was compared to placebo regarding the proportion where the pathologist's NASH diagnosis shifted from confirmed at baseline (re-read) to not confirmed at month 12 using logistic regression. […]",
  "data": [
    {"smiles": "COc1cccc(C(=O)COc2ccc(CC3SC(=O)NC3=O)cc2)c1", "note": "(stereo not shown) [MSDC-0602K]", "values": [
      {"measurement": "proportion of patients with baseline ALT above 19 (women) and 30 (men) U/L whose levels were normal at 12 months", "setting": "62.5 mg", "result": 10.6, "unit": "%"},
      {"measurement": "proportion of patients with baseline ALT above 19 (women) and 30 (men) U/L whose levels were normal at 12 months", "setting": "125 mg", "result": 20.8, "unit": "%"},
      {"measurement": "proportion of patients with baseline ALT above 19 (women) and 30 (men) U/L whose levels were normal at 12 months", "setting": "250 mg", "result": 33.3, "unit": "%"},
      {"measurement": "proportion of patients with baseline ALT above 19 (women) and 30 (men) U/L whose levels were normal at 12 months", "setting": "combined 125 and 250 mg dose groups", "result": 27.2, "unit": "%"},
      {"measurement": "Glucose, LS mean change from baseline to 6 months", "setting": "62.5 mg", "result": -2.42, "unit": "mmol/L"},
      {"measurement": "Glucose, LS mean difference vs placebo at 6 months", "setting": "62.5 mg", "result": -1.18, "unit": "mmol/L"},
      {"measurement": "HOMA IR, LS mean change from baseline to 6 months", "setting": "62.5 mg", "result": "−6.472"},
      {"measurement": "HOMA IR, LS mean difference vs placebo at 6 months", "setting": "62.5 mg", "result": "−1.964"},
      {"measurement": "HgBA1C, LS mean change from baseline to 6 months", "setting": "62.5 mg", "result": "−0.61", "unit": "%"},
      {"measurement": "HgBA1C, LS mean difference vs placebo at 6 months", "setting": "62.5 mg", "result": "−0.18", "unit": "%"},
      {"measurement": "Insulin, LS mean change from baseline to 6 months", "setting": "62.5 mg", "result": "−7.724", "unit": "uIU/mL"},
      {"measurement": "Insulin, LS mean difference vs placebo at 6 months", "setting": "62.5 mg", "result": "−2.242", "unit": "uIU/mL"},
      {"measurement": "Glucose, LS mean change from baseline to 6 months", "setting": "125 mg", "result": -3.48, "unit": "mmol/L"},
      {"measurement": "Glucose, LS mean difference vs placebo at 6 months", "setting": "125 mg", "result": -2.23, "unit": "mmol/L"},
      {"measurement": "HOMA IR, LS mean change from baseline to 6 months", "setting": "125 mg", "result": "−8.178"},
      {"measurement": "HOMA IR, LS mean difference vs placebo at 6 months", "setting": "125 mg", "result": "−3.669"},
      {"measurement": "HgBA1C, LS mean change from baseline to 6 months", "setting": "125 mg", "result": "−1.43", "unit": "%"},
      {"measurement": "HgBA1C, LS mean difference vs placebo at 6 months", "setting": "125 mg", "result": "−1.01", "unit": "%"},
      {"measurement": "Insulin, LS mean change from baseline to 6 months", "setting": "125 mg", "result": "−8.208", "unit": "uIU/mL"},
      {"measurement": "Insulin, LS mean difference vs placebo at 6 months", "setting": "125 mg", "result": "−2.726", "unit": "uIU/mL"},
      {"measurement": "Glucose, LS mean change from baseline to 6 months", "setting": "250 mg", "result": -3.24, "unit": "mmol/L"},
      {"measurement": "Glucose, LS mean difference vs placebo at 6 months", "setting": "250 mg", "result": -1.99, "unit": "mmol/L"},
      {"measurement": "HOMA IR, LS mean change from baseline to 6 months", "setting": "250 mg", "result": "−8.197"},
      {"measurement": "HOMA IR, LS mean difference vs placebo at 6 months", "setting": "250 mg", "result": "−3.689"},
      {"measurement": "HgBA1C, LS mean change from baseline to 6 months", "setting": "250 mg", "result": "−1.00", "unit": "%"},
      {"measurement": "HgBA1C, LS mean difference vs placebo at 6 months", "setting": "250 mg", "result": "−0.58", "unit": "%"},
      {"measurement": "Insulin, LS mean change from baseline to 6 months", "setting": "250 mg", "result": "−10.066", "unit": "uIU/mL"},
      {"measurement": "Insulin, LS mean difference vs placebo at 6 months", "setting": "250 mg", "result": "−4.584", "unit": "uIU/mL"}
    ]}
  ]
}
